Experimental data taken from patent publication US12570648B2, “6,7-dihydro-5H-pyrido[2,3-c]pyridazine derivatives and related compounds as Bcl-xL protein inhibitors and pro-apoptotic agents for treating cancer” (LES LABORATOIRES SERVIER, priority 2019, dated 2026).

Columns and labels:
[1] = biological target: His-His-(EK)-hsBCLXL(2-197)[N197C] (Homo sapiens (Human), UniProt Q07817, N197C); experiment: Fluorescence quenching assay; format: binding; conditions: 1 nM Cy5-labelled protein, 400 nM PUMA peptide, 2 hours at 23° C.; KI determined from IC50
Description: Fluorescence quenching assay measures the change in fluorescence intensity of C-terminally Cy5-labelled BCL-xL protein, His-His-(EK)-hsBCLXL(2-197)[N197C] (UniProtKB®
which is linked in C-terminal region to the amino acid X which corresponds to a cysteine labelled on the sulfur with Sulfo-Cyanine5 from Lumiprobe GmbH catalogue number 13380, upon binding of a C-terminally labelled peptide derived from PUMA (UniProtKB® primary accession number Q9BXH1) having an aminoacid sequence (SEQ ID:04): [[…]] which is linked in C-terminal region to the amino acid X′ where X′ is cysteine labelled on the sulfur with TQ5WS from AAT Bioquest catalogue number 2079.
The addition of a compound which binds competitively to the same site as the peptide will result in an increase in the fluorescence intensity of the protein due to displacement of the fluorescence quencher.
An 11-point serial dilution of each compound was prepared in DMSO, the final buffer conditions were 10 mM 4-(2-hydroxyethyl)-1-piperazineethanesulfonic acid [HEPES], 150 mM NaCl, 0.05% Tween 20, pH 7.4 and 5% DMSO. The final protein concentration in the assay was 1 nM with the peptide present at 400 nM. The experiments were incubated for 2 hours at 23° C. before fluorescence intensity was measured on a Biotek SynergyNeo plate reader (Excitation 620 nm, emission 680 nm). […] The K1 values were determined from the IC50 values according to Cer et al, Nucleic Acids Res, 2009, Jul. 1; 37 (WebServer issue): W441-W445.

MOLT-4 cells = experiment: MOLT-4 cell viability using MTT assay; format: cell-based; conditions: Homo sapiens, MOLT-4, 48 h, 48 h exposure
Description: MTT colorimetric assay is based on the mitochondrial reduction of tetrazolium salt by living cells.
Cells were cultured at 37° C. in a humidified atmosphere containing 5% CO2. […] At the end of incubation time, 15 μL of MTT solution (5 mg/ml) were added per well and the cells were incubated for another 4 h. […] IC50s were calculated using standard four-parametric curve fitting.

Chain of His-His-(EK)-hsBCLXL(2-197)[N197C] (Q07817 2-197 N197C): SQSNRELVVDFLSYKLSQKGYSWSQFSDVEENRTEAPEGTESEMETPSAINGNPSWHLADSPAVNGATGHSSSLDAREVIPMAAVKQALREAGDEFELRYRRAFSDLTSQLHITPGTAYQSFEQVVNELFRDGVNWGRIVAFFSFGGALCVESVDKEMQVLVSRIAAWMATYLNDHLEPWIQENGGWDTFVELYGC

Row | Compound | Ki [1] [nM] | IC50 (MOLT-4 cells) [nM]
1 | Cc1c(Nc2nc3ccccc3s2)nnc2c1CCCN2c1nc(C(=O)O)c(CCCOc2ccc(C#CCN(C(C)C)C(C)C)cc2F)s1 [Example 86, 2-[3-(1,3-Benzothiazol-2-ylamino)-4-methyl-6,7-dihydro-5H-pyrido[2,3-c]pyridazin-8-yl]-5-[3-[4-[3-(diisopropylamino)prop-1-ynyl]-2-fluoro-phenoxy]propyl]thiazole-4-carboxylic acid] | 0.019 | 1.5
2 | Cc1c(Nc2nc3ccccc3s2)nnc2c1CCCN2c1nc(C(=O)O)c(CCCOc2cc3c(cc2F)CN(C)CC3)s1 [Example 74, 2-{3-[(1,3-Benzothiazol-2-yl)amino]-4-methyl-5H,6H,7H,8H-pyrido[2,3-c]pyridazin-8-yl}-5-{3-[(7-fluoro-2-methyl-1,2,3,4-tetrahydroisoquinolin-6-yl)oxy]propyl}-1,3-thiazole-4-carboxylic acid] | 0.01 | 
3 | Cc1c(Nc2nc3ccccc3s2)nnc2c1CCCN2c1ccc(-c2cnn(CC34CC5CC(C3)CC(OCCN3CCCC3)(C5)C4)c2C)c(C(=O)O)n1 [Example 155, 6-[3-(1,3-benzothiazol-2-ylamino)-4-methyl-6,7-dihydro-5H-pyrido[2,3-c]pyridazin-8-yl]-3-[5-methyl-1-[[3-(2-pyrrolidin-1-ylethoxy)-1-adamantyl]methyl]pyrazol-4-yl]pyridine-2-carboxylic acid] |  | 0.543
4 | Cc1c(Nc2nc3ccccc3s2)nnc2c1CCCN2c1ccc(-c2cnn(CC34CC5CC(C3)CC(OCCNCC[C@H](O)CO)(C5)C4)c2C)c(C(=O)O)n1 [Example 160, 6-[3-(1,3-benzothiazol-2-ylamino)-4-methyl-6,7-dihydro-5H-pyrido[2,3-c]pyridazin-8-yl]-3-[1-[[3-[2-[[(3S)-3,4-dihydroxybutyl]amino]ethoxy]-1-adamantyl]methyl]-5-methyl-pyrazol-4-yl]pyridine-2-carboxylic acid] |  | > 100
5 | Cc1c(Nc2nc3ccccc3s2)nnc2c1CCCN2c1ccc(-c2cnn(CC34CC5CC(C3)CC(OCCN(C)C)(C5)C4)c2C)c(C(=O)O)n1 [Example 154, 6-[3-(1,3-benzothiazol-2-ylamino)-4-methyl-6,7-dihydro-5H-pyrido[2,3-c]pyridazin-8-yl]-3-[1-[[3-[2-(dimethylamino)ethoxy]-1-adamantyl]methyl]-5-methyl-pyrazol-4-yl]pyridine-2-carboxylic acid] |  | 0.449
6 | COc1ccc2sc(Nc3nnc4c(c3C)CCCN4c3ccc(-c4cnn(CC56CC7(C)CC(C)(C5)CC(OCCN5CCCC5)(C7)C6)c4C)c(C(=O)O)n3)nc2c1 [Example 180, 3-[1-[[3,5-dimethyl-7-(2-pyrrolidin-1-ylethoxy)-1-adamantyl]methyl]-5-methyl-pyrazol-4-yl]-6-[3-[(5-methoxy-1,3-benzothiazol-2-yl)amino]-4-methyl-6,7-dihydro-5H-pyrido[2,3-c]pyridazin-8-yl]pyridine-2-carboxylic acid] |  | 0.13
7 | Cc1c(Nc2nc3ccccc3s2)nnc2c1CCCN2c1nc(C(=O)O)c(CCCOc2ccc(C#CCN(CC(C)C)CC(C)C)cc2F)s1 [Example 87, 2-[3-(1,3-Benzothiazol-2-ylamino)-4-methyl-6,7-dihydro-5H-pyrido[2,3-c]pyridazin-8-yl]-5-[3-[4-[3-(diisobutylamino)prop-1-ynyl]-2-fluoro-phenoxy]propyl]thiazole-4-carboxylic acid] | 0.044 | 
8 | CNCCCc1ccc(OCCCc2sc(N3CCCc4c3nnc(Nc3nc5ccccc5s3)c4C)nc2C(=O)O)c(F)c1 [Example 34, 2-{3-[(1,3-Benzothiazol-2-yl)amino]-4-methyl-5H,6H,7H,8H-pyrido[2,3-c]pyridazin-8-yl}-5-(3-{2-fluoro-4-[3-(methylamino)propyl]phenoxy}propyl)-1,3-thiazole-4-carboxylic acid] | 0.0019 | 

Second part, the compound after the results:

Row | Ki [1] [nM] | IC50 (MOLT-4 cells) [nM] | Compound
9 | 0.002 | 3.25 | Cc1c(Nc2nc3ccccc3s2)nnc2c1CCCN2c1ccc(-c2cnn(CC34CC5(C)CC(C)(CC(CCCNCC[C@H](O)CO)(C5)C3)C4)c2C)c(C(=O)O)n1 [Example 172, 6-[3-(1,3-benzothiazol-2-ylamino)-4-methyl-6,7-dihydro-5H-pyrido[2,3-c]pyridazin-8-yl]-3-[1-[[3-[3-[[(3S)-3,4-dihydroxybutyl]amino]propyl]-5,7-dimethyl-1-adamantyl]methyl]-5-methyl-pyrazol-4-yl]pyridine-2-carboxylic acid]
10 | 0.0012 | 0.229 | Cc1c(Nc2nc3ccccc3s2)nnc2c1CCCN2c1ccc(-c2cnn(CC34CC5(C)CC(C)(C3)CC(OCCN(C)CCCCO)(C5)C4)c2C)c(C(=O)O)n1 [Example 153, 6-[3-(1,3-benzothiazol-2-ylamino)-4-methyl-6,7-dihydro-5H-pyrido[2,3-c]pyridazin-8-yl]-3-[1-[[3-[2-[4-hydroxybutyl(methyl)amino]ethoxy]-5,7-dimethyl-1-adamantyl]methyl]-5-methyl-pyrazol-4-yl]pyridine-2-carboxylic acid]
11 | 0.0029 | 0.291 | Cc1c(Nc2nc3ccccc3s2)nnc2c1CCCN2c1ccc(-c2cnn(CC34CC5(C)CC(C)(CC(CCCN6CCN(C)CC6)(C5)C3)C4)c2C)c(C(=O)O)n1 [Example 168, 6-[3-(1,3-benzothiazol-2-ylamino)-4-methyl-6,7-dihydro-5H-pyrido[2,3-c]pyridazin-8-yl]-3-[1-[[3,5-dimethyl-7-[3-(4-methylpiperazin-1-yl)propyl]-1-adamantyl]methyl]-5-methyl-pyrazol-4-yl]pyridine-2-carboxylic acid]
12 |  | 1.01 | Cc1c(Nc2nc3ccccc3s2)nnc2c1CCCN2c1ccc(-c2cnn(CC34CC5(C)CC(C)(C3)CC(OCCNCCCO)(C5)C4)c2C)c(C(=O)O)n1 [Example 138, 6-[3-(1,3-benzothiazol-2-ylamino)-4-methyl-6,7-dihydro-5H-pyrido[2,3-c]pyridazin-8-yl]-3-[1-[[3-[2-(3-hydroxypropylamino)ethoxy]-5,7-dimethyl-1-adamantyl]methyl]-5-methyl-pyrazol-4-yl]pyridine-2-carboxylic acid]
13 | 0.0017 |  | Cc1c(Nc2nc3cc(O)ccc3s2)nnc2c1CCCN2c1ccc(-c2cnn(CC34CC5(C)CC(C)(C3)CC(OCCN3CCCC3)(C5)C4)c2C)c(C(=O)O)n1 [Example 152, 3-[1-[[3,5-dimethyl-7-(2-pyrrolidin-1-ylethoxy)-1-adamantyl]methyl]-5-methyl-pyrazol-4-yl]-6-[3-[(5-hydroxy-1,3-benzothiazol-2-yl)amino]-4-methyl-6,7-dihydro-5H-pyrido[2,3-c]pyridazin-8-yl]pyridine-2-carboxylic acid]
14 |  | 5.78 | Cc1c(Nc2nc3ccccc3s2)nnc2c1CCCN2c1ccc(-c2cnn(CC34CC5(C)CC(C)(C3)CC(OCCN(CCCO)CCCO)(C5)C4)c2C)c(C(=O)O)n1 [Example 137, 6-[3-(1,3-benzothiazol-2-ylamino)-4-methyl-6,7-dihydro-5H-pyrido[2,3-c]pyridazin-8-yl]-3-[1-[[3-[2-[bis(3-hydroxypropyl)amino]ethoxy]-5,7-dimethyl-1-adamantyl]methyl]-5-methyl-pyrazol-4-yl]pyridine-2-carboxylic acid]
